Test results published in PubChem BioAssay (NCI).
Several values for one entry are separate records, joined by “and”; a condition that tells them apart may be missing. Identical values can stand only once.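 Grown in 96-well plates, cells were treated for 48 hours with each compound at five concentrations. Insufficient inhibition: endpoint recorded as highest concentration tested. The concentration for 50% growth inhibition is given as GI50. TGI denotes the concentration required for complete inhibition of growth.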

Experiments:
Assay in all cases: NCI anticancer screen, dose series, 48 h
[1] = system: TK-10 renal
[2] = system: UO-31 renal
[3] = system: SW-620 colon
[4] = system: OVCAR-8 ovarian
[5] = system: MDA-MB-435
[6] = system: HCT-116 colon
[7] = system: OVCAR-5 ovarian
[8] = system: KM12 colon
[9] = system: CCRF-CEM leukemia
[10] = system: SF-539 CNS
[11] = system: A498 renal
[12] = system: UACC-257 melanoma
[13] = system: HOP-62 NSCLC
[14] = system: SF-295 CNS
[15] = system: RPMI-8226 leukemia
[16] = system: 786-0 renal
[17] = system: ACHN renal
[18] = system: CAKI-1 renal
[19] = system: OVCAR-3 ovarian
[20] = system: SF-268 CNS
[21] = system: HT29 colon
[22] = system: NCI/ADR-RES ovarian
[23] = system: M14 melanoma
[24] = system: UACC-62 melanoma
[25] = system: U251 CNS
[26] = system: SR leukemia
[27] = system: SNB-19 CNS
[28] = system: K-562 leukemia
[29] = system: OVCAR-4 ovarian
[30] = system: MCF7 breast
[31] = system: DU-145 prostate
[32] = system: MOLT-4 leukemia
[33] = system: HL-60(TB) leukemia
[34] = system: PC-3 prostate
[35] = system: NCI-H226 lung
[36] = system: NCI-H460 lung
[37] = system: SK-MEL-5 melanoma
[38] = system: COLO 205 colon
[39] = system: RXF 393 renal
[40] = system: HCT-15 colon
[41] = system: EKVX NSCLC
[42] = system: SK-MEL-2 melanoma
[43] = system: A549 NSCLC
[44] = system: HOP-92 NSCLC
[45] = system: HS 578T breast
[46] = system: SN12C renal
[47] = system: BT-549 breast
[48] = system: SK-OV-3 ovarian
[49] = system: MALME-3M melanoma
[50] = system: MDA-MB-231 breast
[51] = system: NCI-H23 lung
[52] = system: IGROV1 ovarian
[53] = system: NCI-H522 lung
[54] = system: HCC-2998 colon
[55] = system: SK-MEL-28 melanoma
[56] = system: LOX IMVI melanoma
[57] = system: SNB-75 CNS

For `COC(=O)Nc1nc2ccc(C(=O)c3ccccc3)cc2[nH]1`, the TGI [1] was over 100000 nM, the TGI [2] was over 100000 nM and the GI50 [3] was 410 nM and 259 nM. For the same compound, the TGI [3] was over 100000 nM, the GI50 [4] was 757 nM and 486 nM and the TGI [4] was over 100000 nM. For the same compound, the GI50 [5] was 178 nM and 34.3 nM, the TGI [5] was 485 nM and 211 nM and the GI50 [6] was 470 nM and 353 nM. The TGI [6] was 50800 nM and > 36200 nM, the GI50 [7] was 5380 nM and 2500 nM and the TGI [7] was over 100000 nM. The GI50 [8] was 402 nM and 130 nM, the GI50 [9] was 398 nM and 458 nM and the TGI [9] was over 100000 nM. The GI50 [10] was 577 nM and 238 nM, the GI50 [11] was 314 nM and 325 nM and the TGI [11] was 8900 nM and 3260 nM. The GI50 [12] was 38000 nM, the TGI [12] was over 100000 nM and the GI50 [13] was 610 nM and 3190 nM. The TGI [13] was over 100000 nM, the GI50 [14] was 400 nM and 255 nM and the TGI [14] was over 60500 nM. The GI50 [15] was 903 nM and 297 nM, the TGI [15] was > 100000 nM and 15000 nM and the GI50 [16] was 593 nM and 720 nM. The TGI [16] was over 100000 nM, the GI50 [17] was 2230 nM and 1330 nM and the TGI [17] was over 100000 nM. For the same compound, the GI50 [18] was 469 nM and 347 nM, the TGI [18] was over 100000 nM and the GI50 [19] was 324 nM and 172 nM. For the same compound, the TGI [19] was 864 nM and 415 nM, the GI50 [20] was 1760 nM and 535 nM and the TGI [20] was over 100000 nM. The GI50 [21] was 363 nM and 260 nM, the TGI [21] was 8210 nM and 11200 nM and the GI50 [22] was 346 nM and 357 nM. The GI50 [23] was 427 nM and 257 nM, the TGI [23] was 6600 nM and the GI50 [24] was 476 nM and 463 nM. For the same compound, the TGI [24] was over 100000 nM, the GI50 [25] was 500 nM and 398 nM and the TGI [25] was over 100000 nM. The GI50 [26] was 168 nM and 44.4 nM, the TGI [26] was 28100 nM and > 100000 nM and the GI50 [27] was 587 nM and 471 nM. For the same compound, the TGI [27] was over 100000 nM, the GI50 [28] was 391 nM and 142 nM and the TGI [28] was over 56300 nM. The GI50 [29] was 3880 nM and 3130 nM, the TGI [29] was over 100000 nM and the GI50 [30] was 318 nM and 204 nM. For the same compound, the TGI [30] was over 100000 nM, the GI50 [31] was 1060 nM and 259 nM and the TGI [31] was 22600 nM and 3000 nM. For the same compound, the GI50 [32] was 536 nM and 393 nM, the TGI [32] was over 45800 nM and the GI50 [33] was 255 nM and 233 nM. The TGI [33] was 636 nM, the GI50 [34] was 405 nM and 250 nM and the TGI [34] was > 100000 nM and 19100 nM. For the same compound, the GI50 [35] was 1050 nM and 441 nM, the TGI [35] was 28900 nM and > 100000 nM and the GI50 [36] was 397 nM and 330 nM. The GI50 [37] was 350 nM and 215 nM, the TGI [37] was 14000 nM and 1470 nM and the GI50 [38] was 331 nM and 274 nM. For the same compound, the TGI [38] was 1120 nM and 3740 nM, the GI50 [39] was 368 nM and the TGI [39] was 2190 nM. For the same compound, the GI50 [40] was 451 nM and 210 nM, the TGI [40] was over 100000 nM and the TGI [41] was over 100000 nM. The GI50 [42] was 473 nM and 583 nM, the TGI [42] was 22800 nM and > 100000 nM and the GI50 [43] was 605 nM and 534 nM. For the same compound, the TGI [43] was over 100000 nM, the TGI [44] was over 85900 nM and the GI50 [45] was 518 nM and 200 nM. For the same compound, the TGI [45] was over 100000 nM, the GI50 [46] was 1090 nM and 620 nM and the TGI [46] was over 100000 nM. The GI50 [47] was 1200 nM and 3270 nM, the TGI [47] was > 100000 nM and 52100 nM and the GI50 [48] was 435 nM and 467 nM. For the same compound, the GI50 [49] was 559 nM and 201 nM, the TGI [49] was over 100000 nM and the GI50 [50] was 1050 nM and 1250 nM. The TGI [50] was over 100000 nM, the GI50 [51] was 747 nM and 1130 nM and the TGI [51] was over 100000 nM. The GI50 [52] was 1010 nM and 565 nM, the TGI [52] was > 100000 nM and 52900 nM and the GI50 [53] was 317 nM and 323 nM. The TGI [53] was 2360 nM, the GI50 [54] was 2310 nM and 2130 nM and the TGI [54] was over 100000 nM. For the same compound, the GI50 [55] was 651 nM and 464 nM, the TGI [55] was over 100000 nM and the GI50 [56] was 625 nM and 870 nM. For the same compound, the TGI [56] was over 100000 nM, the GI50 [57] was 256 nM and 86.6 nM and the TGI [57] was > 100000 nM and 17000 nM.
